What was measured:
mushroom tyrosinase = target: T1, mushroom tyrosinase (Agaricus bisporus, UniProt C7FF04); experiment: Mushroom tyrosinase inhibition assay; type: biochemical; details: L-tyrosine as substrate
T1 construct: purchased Sigma-Aldrich
Experimental: Mushroom tyrosinase inhibitory activity was determined as described previously, with minor modifications. L-Tyrosine was used as a substrate to determine enzyme activities. […] These dose-dependent inhibition experiments were carried out three times using three to five different concentrations of test compounds to determine IC50 values. Log–linear curves and their equations were derived from the observed percentages of inhibition.

[1] = DPPH radical scavenging activity assay; details: compound 1.0 mM, 30 min in the dark, 517 nm
Experimental: The DPPH (2,2-diphenyl-1-picrylhydrazyl) scavenging activities of synthesized compounds 1a–1p were investigated as previously described, with minor modifications. A dimethyl sulfoxide solution (20 µL) containing 10 mM of each compound was mixed with DPPH methanol solution (0.2 mM, 180 µL) in the wells of a 96-well plate, and placed in the dark for 30 min at room temperature. At 517 nm, optical densities were measured using a microplate reader (VersaMax^TM, Molecular Devices, Sunnyvale, CA, USA). The DPPH radical scavenging ability of the 2-arylbenzothiazole derivatives was compared with that of L-ascorbic acid, the positive control. All experiments were performed independently in triplicate.

[2] = ABTS radical scavenging activity assay; details: 100 µM, 2 min in the dark; for ABTS free radical scavenged (%): 734 nm
Experimental: At 734 nm, optical densities of the solutions were measured using a microplate reader (VersaMax^TM, Molecular Devices, Sunnyvale, CA, USA). The ABTS radical scavenging capacities of the 16 2-arylbenzothiazole derivatives were compared with trolox. All experiments were performed independently in triplicate.

[3] = tested on: intracellular ROS in B16F10 cells; experiment: Intracellular ROS scavenging (DCFH-DA assay, SIN-1 induced); type: cell-based, murine; details: 20 µM, SIN-1 10 µM, trolox 20 µM positive control
Experimental: Intracellular ROS scavenging evaluation was performed as reported by Ali et al. and Lebel and Bondy. ROS generation was assessed using the ROS-sensitive fluorescence indicator DCFH-DA. Briefly, B16F10 cells were seeded in 96-well black plates (1 × 10^4 cell/well), incubated for 24 h, treated with compounds 1a–1p (20 µM in DMSO) for 2 h, stimulated with 10 µL of SIN-1 (100 µM in 50 mM sodium phosphate buffer, pH 7.4) for 1 h to induce ROS production, and then incubated with DCFH-DA (20 µM) for 30 min at 37 °C. Fluorescence was measured for 30 min at 5 min intervals at an excitation wavelength of 485 nm and emission wavelength of 535 nm, using a Berthold microplate reader (Berthold Technologies GmbH &Co., Wien, Austria).

T1 sequence (C7FF04 1-392 limits assumed): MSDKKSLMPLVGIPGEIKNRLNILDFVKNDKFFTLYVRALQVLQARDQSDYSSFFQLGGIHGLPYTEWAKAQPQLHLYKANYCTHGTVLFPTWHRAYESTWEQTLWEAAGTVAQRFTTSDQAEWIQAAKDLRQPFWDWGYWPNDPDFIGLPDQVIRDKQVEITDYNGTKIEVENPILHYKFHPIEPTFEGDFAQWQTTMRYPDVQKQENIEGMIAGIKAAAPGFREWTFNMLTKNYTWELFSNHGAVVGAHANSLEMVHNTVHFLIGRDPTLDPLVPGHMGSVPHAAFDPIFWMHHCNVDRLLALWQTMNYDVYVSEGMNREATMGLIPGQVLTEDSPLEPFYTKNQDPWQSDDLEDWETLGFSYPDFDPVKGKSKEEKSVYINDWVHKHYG

| IC50 (mushroom tyrosinase) [µM] | melting point [°C] | SMILES | DPPH radical scavenging activity [1] | ABTS radical scavenging activity (in words) [2] | ABTS free radical scavenged (%) [2] [%] | intracellular ROS scavenging [3] |
| --- | --- | --- | --- | --- | --- | --- |
| > 300 | 267.3 to 269.4 | Oc1ccc(-c2nc3cc(C(F)(F)F)ccc3s2)cc1O [Compound 1c, 4-(5-(Trifluoromethyl)benzo[d]thiazol-2-yl)benzene-1,2-diol] | greatest DPPH radical scavenging activity (comparable to L-ascorbic acid) | potently scavenged the ABTS radical | 92.4 | scavenged intracellular ROS far more potently than trolox |
| 291 ± 63.8 | 155.7 to 159.9 | COc1cc(-c2nc3cc(C(F)(F)F)ccc3s2)ccc1O [Compound 1d, 2-Methoxy-4-(5-(trifluoromethyl)benzo[d]thiazol-2-yl)phenol] | moderate DPPH radical scavenging efficacy | – | – | – |
| > 300 | 117 to 117.8 | CCOc1cc(-c2nc3cc(C(F)(F)F)ccc3s2)ccc1O [Compound 1e, 2-Ethoxy-4-(5-(trifluoromethyl)benzo[d]thiazol-2-yl)phenol] | – | – | – | – |
| > 300 | 142.1 to 144.5 | COc1ccc(-c2nc3cc(C(F)(F)F)ccc3s2)cc1O [Compound 1f, 2-Methoxy-5-(5-(trifluoromethyl)benzo[d]thiazol-2-yl)phenol] | moderate DPPH radical scavenging efficacy | – | – | – |
| > 300 | 175 to 176.5 | Oc1ccccc1-c1nc2cc(C(F)(F)F)ccc2s1 [Compound 1g, 2-(5-(Trifluoromethyl)benzo[d]thiazol-2-yl)phenol] | – | – | – | scavenged intracellular ROS to a similar extent to trolox |
| > 300 | 128.8 to 130.1 | COc1ccc(-c2nc3cc(C(F)(F)F)ccc3s2)cc1 [Compound 1h, 2-(4-Methoxyphenyl)-5-(trifluoromethyl)benzo[d]thiazole] | – | – | – | – |
| > 300 | 140.4 to 141.6 | COc1ccc(-c2nc3cc(C(F)(F)F)ccc3s2)c(OC)c1 [Compound 1i, 2-(2,4-Dimethoxyphenyl)-5-(trifluoromethyl)benzo[d]thiazole] | – | – | – | – |
| 264 ± 56.6 | 120.4 to 121.6 | COc1ccc(-c2nc3cc(C(F)(F)F)ccc3s2)cc1OC [Compound 1j, 2-(3,4-Dimethoxyphenyl)-5-(trifluoromethyl)benzo[d]thiazole] | – | – | – | – |
| > 300 | 132.5 to 134 | COc1cc(-c2nc3cc(C(F)(F)F)ccc3s2)cc(OC)c1OC [Compound 1k, 5-(Trifluoromethyl)-2-(3,4,5-trimethoxyphenyl)benzo[d]thiazole] | – | – | – | – |
| > 300 | 220.6 to 222.6 | COc1cc(-c2nc3cc(C(F)(F)F)ccc3s2)cc(OC)c1O [Compound 1l, 2,6-Dimethoxy-4-(5-(trifluoromethyl)benzo[d]thiazol-2-yl)phenol] | moderate DPPH radical scavenging efficacy | – | – | – |
| 129 ± 19.8 | – | Cc1cc(-c2nc3cc(C(F)(F)F)ccc3s2)cc(C)c1O [Compound 1m, 2,6-Dimethyl-4-(5-(trifluoromethyl)benzo[d]thiazol-2-yl)phenol] | moderate DPPH radical scavenging efficacy | – | – | – |
| 217 ± 32.7 | 256.7 to 260.6 | Oc1cc(O)cc(-c2nc3cc(C(F)(F)F)ccc3s2)c1 [Compound 1n, 5-(5-(Trifluoromethyl)benzo[d]thiazol-2-yl)benzene-1,3-diol] | moderate DPPH radical scavenging efficacy | potently scavenged the ABTS radical | – | scavenged intracellular ROS to a similar extent to trolox |
| > 300 | – | Oc1c(Br)cc(-c2nc3cc(C(F)(F)F)ccc3s2)cc1Br [Compound 1o, 2,6-Dibromo-4-(5-(trifluoromethyl)benzo[d]thiazol-2-yl)phenol] | – | – | – | – |
| 102 ± 12.4 | – | Oc1ccc(-c2nc3cc(C(F)(F)F)ccc3s2)cc1Br [Compound 1p, 2-Bromo-4-(5-(trifluoromethyl)benzo[d]thiazol-2-yl)phenol] | – | – | – | scavenged intracellular ROS to a similar extent to trolox |
| – | – | Cc1c(C)c2c(c(C)c1O)CCC(C)(C(=O)O)O2 (stereo not drawn) [trolox, 6-hydroxy-2,5,7,8-tetramethylchroman-2-carboxylic acid, reference compound] | – | – | 98.9 | – |

From PMC9311798, “A Novel Class of Potent Anti-Tyrosinase Compounds with Antioxidant Activity, 2-(Substituted phenyl)-5-(trifluoromethyl)benzo[d]thiazoles: In Vitro and In Silico Insights” (Antioxidants, 2022)
